Test results published in US20240041042A1, “1-(PYRIDYL)-5-AZINYLPYRAZOLE DERIVATIVES, AND THEIR USE FOR CONTROL OF UNDESIRED PLANT GROWTH” (Bayer Aktiengesellschaft, priority 2020, published 2024).
Like-named read-outs stand apart in the source and are kept apart here.

Assays:
Format in all cases: in vivo
[1] = test system: Digitaria sanguinalis (DIGSA); assay: Post-emergence herbicidal action against DIGSA; details: 320 g/ha, visual rating about 3 weeks after treatment
In short: (§1)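 Post-emergence greenhouse spray, one-leaf stage, 600 l/ha water plus 0.5% additive; WP or EC formulations; application rates 320 g/ha or lower. Visual % damage vs untreated controls at ~3 weeks.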

[2] = test system: Amaranthus retroflexus (AMARE); assay: Post-emergence herbicidal action against AMARE
In short: as §1

[3] = test system: Triticum aestivum (TRZAS); details: crop plant compatibility, effect vs untreated controls
In short: (§2)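 Percent effect on the crop was judged by eye against untreated controls, where 0% means like control and 100% means dead plants. Plants had been sprayed post-emergence at the one-leaf stage and then kept under optimum greenhouse conditions for about 3 weeks.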

Zea mays (ZEAMX) = details: for Post-emergence action against ZEAMX in % (crop plant compatibility): 20 g/ha, effect in comparison to untreated controls; for Post-emergence action against ZEAMX in %: crop plant compatibility, 80 g/ha, effect vs untreated controls
In short: as §2

Oryza sativa (ORYSA) = details: crop plant compatibility
In short: as §2

[4] = test system: Verconica persica (VERPE); assay: Post-emergence herbicidal action against VERPE
In short: as §1

[5] = test system: Polygonum convolvulus (POLCO); assay: Post-emergence herbicidal action against POLCO
In short: as §1

[6] = test system: Alopecurus myosuroides (ALOMY); assay: Post-emergence herbicidal action against ALOMY; details: visual rating about 3 weeks after treatment vs untreated controls (100% = plants have died, 0% = like control plants)
In short: as §1

Setaria viridis (SETVI) [7] = assay: Post-emergence herbicidal action against SETVI
In short: as §1

[8] = test system: Abutilon theophrasti (ABUTH); assay: Post-emergence herbicidal action against ABUTH; details: visual rating about 3 weeks after treatment vs untreated controls (100% = plants have died, 0% = like control plants)
In short: as §1

Viola tricolor (VIOTR) [9] = assay: Post-emergence herbicidal action against VIOTR
In short: as §1

[10] = test system: Echinochloa crus-galli (ECHCG); assay: Post-emergence herbicidal action against ECHCG
In short: as §1

Avena fatua (AVEFA) [11] = assay: Pre-emergence herbicidal action against AVEFA; details: 320 g/ha, visual scoring after about 3 weeks vs untreated controls
In short: (§3)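 Herbicide applied to soil before seedling emergence, at 600 l/ha spray volume with 0.5% additive and rates up to 320 g/ha. Evaluation: visual percentage effect, about 3 weeks later, greenhouse-grown pots compared with untreated ones.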

[12] = test system: Verconica persica (VERPE); assay: Pre-emergence herbicidal action against VERPE; details: dosage 320 g/ha
In short: as §3

Viola tricolor (VIOTR) [13] = assay: Pre-emergence herbicidal action against VIOTR; details: 320 g/ha, Viola tricolor
In short: as §3

[14] = test system: Alopecurus myosuroides (ALOMY); assay: Pre-emergence herbicidal action against ALOMY; details: scored visually after about 3 weeks, 100% = plants have died
In short: as §3

[15] = test system: Pharbitis purpurea (PHBPU); assay: Pre-emergence herbicidal action against PHBPU
In short: as §3

Lolium rigidum (LOLRI) [16] = assay: Pre-emergence herbicidal action against LOLRI
In short: as §3

[17] = test system: Matricaria inodora (MATIN); assay: Post-emergence herbicidal action against MATIN; details: dosage 80 g/ha
In short: as §1

Lolium rigidum (LOLRI) [18] = assay: Post-emergence herbicidal action against LOLRI
In short: as §1

[19] = test system: Echinochloa crus-galli (ECHCG); assay: Pre-emergence herbicidal action against ECHCG
In short: as §3

[20] = test system: Matricaria inodora (MATIN); assay: Pre-emergence herbicidal action against MATIN
In short: as §3

Setaria viridis (SETVI) [21] = assay: Pre-emergence herbicidal action against SETVI; details: dosage 320 g/ha
In short: as §3

[22] = test system: Amaranthus retroflexus (AMARE); assay: Pre-emergence herbicidal action against AMARE; details: visual scoring after about 3 weeks vs untreated controls
In short: as §3

Avena fatua (AVEFA) [23] = assay: Post-emergence herbicidal action against AVEFA; details: 80 g/ha, visual rating about 3 weeks after treatment
In short: as §1

[24] = test system: Polygonum convolvulus (POLCO); assay: Pre-emergence herbicidal action against POLCO; details: dosage 320 g/ha
In short: as §3

[25] = test system: Pharbitis purpurea (PHBPU); assay: Post-emergence herbicidal action against PHBPU; details: dosage 80 g/ha
In short: as §1

[26] = 20 g/ha, effect vs untreated controls
[27] = 80 g/ha, effect in comparison to untreated controls

Compound: COC(=O)COc1nn(-c2cccnc2C)c(-c2cncc(F)c2)c1Cl [II-44]
- Post-emergence action against DIGSA in % [1]: 80%
- Post-emergence action against AMARE in % ([2]; 320 g/ha, visual rating about 3 weeks after treatment): 90%
- Post-emergence action against TRZAS in % ([3]; 20 g/ha): 20%
- Post-emergence action against TRZAS in % ([3]; 80 g/ha): 20%
- Post-emergence action against ZEAMX in % (crop plant compatibility) (Zea mays (ZEAMX)): 0%
- Post-emergence action against ZEAMX in % (Zea mays (ZEAMX)): 0%
- Post-emergence action against ORYSA in % (Oryza sativa (ORYSA); [26]): 0%
- Post-emergence action against ORYSA in % (Oryza sativa (ORYSA); [27]): 0%
- Post-emergence action against VERPE in % ([4]; 320 g/ha, VERPE): 90%
- Post-emergence action against VERPE in % ([4]; dosage 80 g/ha): 80%
- Post-emergence action against POLCO in % ([5]; dosage 320 g/ha): 90%
- Post-emergence action against ALOMY in % ([6]; 320 g/ha): 100%
- Post-emergence action against SETVI in % (Setaria viridis (SETVI) [7]; dosage 320 g/ha): 90%
- Post-emergence action against ABUTH in % ([8]; 320 g/ha): 80%
- Post-emergence action against VIOTR in % (Viola tricolor (VIOTR) [9]; 80 g/ha): 80%
- Post-emergence action against VIOTR in % (Viola tricolor (VIOTR) [9]; 320 g/ha): 90%
- Post-emergence action against ECHCG in % ([10]; dosage 320 g/ha): 90%

Compound: COC(=O)C(C)NC(=O)C(C)Oc1nn(-c2ccccn2)c(-c2ccc(F)nc2)c1Br (stereo not drawn) [Example I-286]
- Post-emergence action against DIGSA in % [1]: 90%
- Post-emergence action against TRZAS in % ([3]; 20 g/ha): 20%
- Post-emergence action against ZEAMX in % (crop plant compatibility) (Zea mays (ZEAMX)): 10%
- Post-emergence action against ZEAMX in % (Zea mays (ZEAMX)): 20%
- Post-emergence action against ORYSA in % (Oryza sativa (ORYSA); [26]): 10%
- Post-emergence action against ORYSA in % (Oryza sativa (ORYSA); [27]): 20%
- Post-emergence action against ORYSA in % (Oryza sativa (ORYSA); 320 g/ha, effect in comparison to untreated controls): 20%
- Post-emergence action against SETVI in % (Setaria viridis (SETVI) [7]; dosage 320 g/ha): 80%
- Post-emergence action against VIOTR in % (Viola tricolor (VIOTR) [9]; 320 g/ha): 80%
- Post-emergence action against ECHCG in % ([10]; dosage 320 g/ha): 80%

Compound: COC(=O)CCOC(=O)COc1nn(-c2ccccn2)c(-c2cncc(F)c2)c1Cl [Example I-75]
- Pre-emergence action against AVEFA in % (Avena fatua (AVEFA) [11]): 80%
- Pre-emergence action against VERPE in % [12]: 90%
- Pre-emergence action against VIOTR in % (Viola tricolor (VIOTR) [13]): 100%
- Post-emergence action against AMARE in % ([2]; 80 g/ha, visual rating about 3 weeks after treatment vs untreated controls (100% = plants have died, 0% = like control plants)): 80%
- Pre-emergence action against ALOMY ([14]; 80 g/ha): 80%
- Pre-emergence action against ALOMY ([14]; 320 g/ha): 90%
- Post-emergence action against TRZAS in % ([3]; 20 g/ha): 20%
- Post-emergence action against ZEAMX in % (crop plant compatibility) (Zea mays (ZEAMX)): 10%
- Post-emergence action against ZEAMX in % (Zea mays (ZEAMX)): 20%
- Post-emergence action against ORYSA in % (Oryza sativa (ORYSA); [26]): 0%
- Post-emergence action against ORYSA in % (Oryza sativa (ORYSA); [27]): 0%
- Pre-emergence action against PHBPU in % ([15]; dosage 80 g/ha): 90%
- Pre-emergence action against PHBPU in % ([15]; dosage 320 g/ha): 90%
- Pre-emergence action against LOLRI in % (Lolium rigidum (LOLRI) [16]; dosage 80 g/ha): 80%
- Pre-emergence action against LOLRI in % (Lolium rigidum (LOLRI) [16]; dosage 320 g/ha): 100%
- Post-emergence action against MATIN in % [17]: 90%
- Post-emergence action against LOLRI in % (Lolium rigidum (LOLRI) [18]; dosage 80 g/ha): 90%
- Pre-emergence action against ECHCG in % ([19]; dosage 80 g/ha): 80%
- Pre-emergence action against ECHCG in % ([19]; dosage 320 g/ha): 100%
- Pre-emergence action against MATIN in % ([20]; dosage 80 g/ha): 90%
- Pre-emergence action against MATIN in % ([20]; dosage 320 g/ha): 90%
- Post-emergence action against VERPE in % ([4]; dosage 80 g/ha): 80%
- Post-emergence action against POLCO in % ([5]; dosage 80 g/ha): 90%
- Post-emergence action against ALOMY in % ([6]; 80 g/ha): 90%
- Pre-emergence action against SETVI in % (Setaria viridis (SETVI) [21]): 100%
- Pre-emergence action against AMARE in % ([22]; 80 g/ha): 80%
- Pre-emergence action against AMARE in % ([22]; 320 g/ha): 90%
- Post-emergence action against SETVI in % (Setaria viridis (SETVI) [7]; dosage 80 g/ha): 80%
- Post-emergence action against ABUTH in % ([8]; 80 g/ha): 80%
- Post-emergence action against AVEFA in % (Avena fatua (AVEFA) [23]): 80%
- Pre-emergence action against POLCO in % [24]: 90%
- Post-emergence action against PHBPU in % [25]: 90%
- Post-emergence action against ECHCG in % ([10]; dosage 80 g/ha): 90%

Compound: COC(=O)[C@@H](C)Oc1nn(-c2ncccc2F)c(-c2ccnc(F)c2)c1Br [Example I-134]
- Post-emergence action against DIGSA in % [1]: 80%
- Post-emergence action against TRZAS in % ([3]; 20 g/ha): 20%
- Post-emergence action against ZEAMX in % (crop plant compatibility) (Zea mays (ZEAMX)): 10%
- Post-emergence action against ORYSA in % (Oryza sativa (ORYSA); [26]): 0%
- Post-emergence action against ORYSA in % (Oryza sativa (ORYSA); [27]): 10%
- Post-emergence action against LOLRI in % (Lolium rigidum (LOLRI) [18]; dosage 80 g/ha): 80%
- Post-emergence action against LOLRI in % (Lolium rigidum (LOLRI) [18]; dosage 320 g/ha): 90%
- Post-emergence action against VERPE in % ([4]; 320 g/ha, VERPE): 80%
- Post-emergence action against VERPE in % ([4]; dosage 80 g/ha): 80%
- Post-emergence action against ALOMY in % ([6]; 320 g/ha): 90%
- Post-emergence action against SETVI in % (Setaria viridis (SETVI) [7]; dosage 320 g/ha): 80%
- Post-emergence action against ECHCG in % ([10]; dosage 320 g/ha): 80%
